Experimental data from patent publication US20070071717A1, “Treatment of B cells with IL-21 and B cell activators induces Granzyme B production” (University of Iowa Research Foundation, priority 2005, published 2007).

Key:
[1] = tested on: Purified B cells; assay: RT-PCR for granzyme B and perforin in purified B cells; assay type: cell-based, human; details: 18 hours, with or without anti-BCR antibodies
Protocol: Purified B cells (purity >99.9%) were cultured for 18 hours in the presence or absence of IL-21 and B cell receptor stimulation (anti-BCR antibodies). Subsequently RNA was isolated and real time RT-PCR with specific primers and probes for granzyme B and perforin was performed. In addition to real time RT-PCR, conventional RT-PCR was also performed and PCR products were run on a gel. The expected amplicon sized are 218 bp (base pairs) and 146 bp for granzyme B and perforin respectively.

[2] = tested on: B-CLL cells; assay: Flow cytometric apoptosis / cell survival assay (Annexin V, PI) of B-CLL cells; assay type: cell-based, human
Protocol: Apoptosis and cell survival assay. Cells were harvested at the indicated time points by staining all cells from a given well with mAb for CD19, CD5 and FITC-labeled Annexin V (BD Biosciences, San Diego, Calif.). A predetermined number of calibration beads (CaliBRITE™ Beads, BD Biosciences, San Diego, Calif.) were then added to each sample to allow for normalization of cell counts in different samples at different time points.
(§1) Flow cytometric apoptosis assays. Cells were stained with Annexin V (BD Biosciences, San Diego, Calif.), or cell-permeable fluorogenic substrates specific for Granzyme B or Caspase 6 for 1 hour at room temperature according to the manufacturer's instructions (Oncolmmunin, Gaithersburg. Md.). A pre-determined number of calibration beads (CaliBRITE™ Beads, BD Biosciences, San Diego, Calif.) was added to each sample to allow for normalization of cell counts at different time points. Propidium iodide at 1 μg/ml was added just prior to flow cytometric analysis. The count of viable cells rather than the count of apoptotic cells was used for the calculation of cell survival because of concerns some non-viable cells may have undergone lysis and not have been available for counting. Absolute cell survival was expressed as percentage of viable cell counts relative to initial plating counts.

[3] = tested on: Daudi cells (pre-B cell line); assay: IFN-γ ELISpot with Daudi cells; assay type: cell-based; details: 10^5 cells/well, 16 hours
Protocol: Daudi cells (pre-B cell line) were incubated on IFN-γ-ELISpot plates in the presence of IL-21, CpG ODN, B cell receptor stimulation or various combinations at a cell concentration of 10^5 cells/well. After 16 hours plates were developed and analyzed.

[4] = tested on: untreated, bystander B-CLL cells; assay: Bystander cell killing assay with autologous B-CLL cells; assay type: cell-based, human; details: 24 hours treatment, washed, 2 days co-culture
Protocol: Bystander cell assay. Cells were harvested from CLL subjects and separated into aliquots. One aliquot was treated with CpG ODN, IL-21 or both, while a second was untreated but labeled with a membrane dye. Both aliquots were washed thoroughly, and mixed together in the indicated ratio. Cells were harvested after two days, and the number of viable cells in each aliquot determined by gating on the stained or unstained cells.
(§2) Flow cytometry. Antibodies to CD5, CD19, CD27 as well as CD107a were purchased from BD Bioscoences (San Diego, Calif.). IL-21 receptor protein expression was detected using a mAB (clone 152512) from R&D Systems (Minneapolis, Minn.). PKH26 staining was used to identify untreated cells in bystander assays. B-CLL cells were resuspended at a density of 1×10^7 cells/ml in diluent C containing 2 μM PKH26 (both from Sigma, Saint Louis, Mo.). […] Flow cytometric analyses were performed on a FACScan (Becton Dickinson Immunocytometry Systems, San Jose, Calif.) and data analyzed using the program FlowJo (version 6.4.1, Tree Star Inc., Stanford, Calif.).
B-CLL cells treated with CpG ODN and IL-21 can kill untreated autologous cells. […] The inventors next evaluated whether B-CLL cells treated with IL-21 and CpG ODN have the potential to kill. […] The survival of the unstained, untreated cells was then evaluated by flow cytometry.

[5] = tested on: B-CLL cells; assay: Intracellular flow cytometry for Granzyme B, Granzyme A and Perforin in B-CLL cells; assay type: cell-based, human; details: 18 hours, Brefeldin A for the last hours
Protocol: Flow cytometry. […] For flow cytometric Granzyme and Perforin detection, cells were incubated at 1×10^6/ml for 13 hrs, Brefeldin A (Epicentre Technologies, Madison, Wis.) added to a final concentration of 1 mg/ml, and cells cultured for 5 more hours. Intracellular staining was performed using a Fix and Perm kit (Caltag Laboratories, Burlingame, Calif.) according to the manufacturer's instructions. Briefly, cells were washed once and resuspended in Fixation Buffer, incubated for 15 minutes at room temperature and washed with PBS. Cells were then resuspended in Permeabilization Buffer and PE- or FITC-labeled antibodies to Granzyme B (clone GB12; Caltag Laboratories), Perforin (clone dG9; BD Pharmingen), Granzyme A (clone CB9; BD Pharmingen) or suitable control antibodies were added. After another 15 minute incubation at room temperature, cells were washed with PBS. Flow cytometric analyses were performed on a FACScan (Becton Dickinson Immunocytometry Systems, San Jose, Calif.) and data analyzed using the program FlowJo (version 6.4.1, Tree Star Inc., Stanford, Calif.).

[6] = tested on: benign B cells; assay: Apoptosis / cell survival assay of benign B cells; assay type: cell-based, human; details: 3 days of culture
Protocol: as §1, with “Apoptosis and cell survival assay. Cells were harvested at the indicated time points by staining all cells from a given well with mAb for CD19, CD5 and FITC-labeled Annexin V (BD Biosciences, San Diego, Calif.). A predetermined number of calibration beads (CaliBRITE™ Beads, BD Biosciences, San Diego, Calif.) were then added to each sample to allow for normalization of cell counts in different samples at different time points. Flow” for “Flow”

[7] = tested on: benign peripheral blood B cells; assay: Granzyme B flow cytometry and ELISpot with purified benign peripheral B cells; assay type: cell-based, human
Protocol: as §2, with “Mo.). After 3 minutes, the reaction was stopped by adding an equal volume of FBS (HyClone, Ogden, Utah). Subsequently cells were washed 3 times and finally resuspended in AIM-V medium. For flow cytometric Granzyme and Perforin detection, cells were incubated at 1×10^6/ml for 13 hrs, Brefeldin A (Epicentre Technologies, Madison, Wis.) added to a final concentration of […], and cells cultured for 5 more hours.” for “Mo.).”
Elispot assays for human Granzyme B and Perforin. […] Plates were dried completely, and spots read on an Immunospot Series 1 Analyzer and counted using Immunospot 3 software, both from C.T.L. Cellular Technology Ltd. (Cleveland, Ohio).

[8] = tested on: IL-21 receptor; assay: Flow cytometry of IL-21 receptor protein on B-CLL cells; assay type: cell-based, human; details: after 4 and 7 days of incubation, ODN 2.5 μg/ml, FACS
Protocol: Flow cytometry. Antibodies to CD5, CD19, CD27 as well as CD107a were purchased from BD Bioscoences (San Diego, Calif.). IL-21 receptor protein expression was detected using a mAB (clone 152512) from R&D Systems (Minneapolis, Minn.). PKH26 staining was used to identify untreated cells in bystander assays. B-CLL cells were resuspended at a density of 1×10^7 cells/ml in diluent C containing 2 μM PKH26 (both from Sigma, Saint Louis, Mo.). After 3 minutes, the reaction was stopped by adding an equal volume of FBS (HyClone, Ogden, Utah). Subsequently cells were washed 3 times and finally resuspended in AIM-V medium. For flow cytometric Granzyme and Perforin detection, cells were incubated at 1×10^6/ml for 13 hrs, Brefeldin A (Epicentre Technologies, Madison, Wis.) added to a final concentration of […], and cells cultured for 5 more hours. Intracellular staining was performed using a Fix and Perm kit (Caltag Laboratories, Burlingame, Calif.) according to the manufacturer's instructions. Briefly, cells were washed once and resuspended in Fixation Buffer, incubated for 15 minutes at room temperature and washed with PBS. […] Flow cytometric analyses were performed on a FACScan (Becton Dickinson Immunocytometry Systems, San Jose, Calif.) and data analyzed using the program FlowJo (version 6.4.1, Tree Star Inc., Stanford, Calif.).

| Substance | transcription of the gene for granzyme B in B cells [1] | transcription of the gene for perforin in B cells [1] | apoptosis of B-CLL cells ([2]; 4 days, Annexin V and PI) | ED50 to induce apoptosis of B-CLL cells ([2]; agent alone, 4 days) | apoptosis of CD5-negative, atypical B-CLL ([2]; preliminary, unpublished results) | secretion of interferon-γ by Daudi cells [3] | killing of untreated autologous bystander B-CLL cells by treated B-CLL cells [4] | Granzyme B(+) B-CLL cells, flow cytometry gating on CD19(+) [5] | apoptosis of benign B cells [6] | Granzyme B expression by highly purified (99.9%) benign B cells [7] | IL-21 receptor protein levels on B-CLL cells [8] |
| --- | --- | --- | --- | --- | --- | --- | --- | --- | --- | --- | --- |
| IL-21: cytokine of 131 residues (SEQ ID NO:1); Human IL-21 purchased from BioSource | induces transcription | induces transcription | induced some apoptosis | 0.04 µg/mL | do not undergo apoptosis | induces the secretion | No such bystander effect | rare Granzyme B(+) B cells | Neither IL-21 alone nor IL-21 plus CpG ODN induced apoptosis | induced expression of Granzyme B |  |
| control ODN: phosphorothioate-phosphodiester-modified control oligodeoxynucleotide 2243, 5′-GGGGGAGCATGCTGGGGGGG-3′ (SEQ ID NO:5) (DNA GGGGGAGCATGCTGGGGGGG; DNA, backbone and methylation of C not given here; phosphorothioate-phosphodiester chimeric backbone) |  |  |  |  |  |  |  |  |  |  | no detectable effect |
